Experimental data: PMC6731595, “The anti-parasitic agent suramin and several of its analogues are inhibitors of the DNA binding protein Mcm10” (Open Biology, 2019)
Read-outs that look alike come from different tables or passages of the source.

T1: human Mcm10 internal domain (hMcm10-ID) (Homo sapiens, UniProt Q7L590)
T1 construct: hMcm10-ID (residues 237 to 436) were expressed in E. coli strain BL21(DE3); 6xHis (HRV 3C site) (N, cleaved yes); made in house; host or cells: E. coli BL21(DE3)
T1 sequence (Q7L590 237-436): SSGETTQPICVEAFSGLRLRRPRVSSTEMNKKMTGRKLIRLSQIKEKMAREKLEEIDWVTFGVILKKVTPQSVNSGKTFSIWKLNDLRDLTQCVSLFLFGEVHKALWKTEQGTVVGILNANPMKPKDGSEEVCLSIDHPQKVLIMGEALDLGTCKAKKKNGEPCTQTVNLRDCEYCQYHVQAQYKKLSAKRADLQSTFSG

T2: full-length Xenopus Mcm10 (xMcm10-FL) (Xenopus laevis, UniProt Q5EAW4)
T2 construct: The full-length xMcm10 was expressed with MBP fused onto the N-terminus and 6x-His tag attached to the C-terminus; 6xHis (C); made in house; host or cells: E. coli BL21(DE3), as for the ID constructs ('as described above')
T2 sequence (Q5EAW4 1-860): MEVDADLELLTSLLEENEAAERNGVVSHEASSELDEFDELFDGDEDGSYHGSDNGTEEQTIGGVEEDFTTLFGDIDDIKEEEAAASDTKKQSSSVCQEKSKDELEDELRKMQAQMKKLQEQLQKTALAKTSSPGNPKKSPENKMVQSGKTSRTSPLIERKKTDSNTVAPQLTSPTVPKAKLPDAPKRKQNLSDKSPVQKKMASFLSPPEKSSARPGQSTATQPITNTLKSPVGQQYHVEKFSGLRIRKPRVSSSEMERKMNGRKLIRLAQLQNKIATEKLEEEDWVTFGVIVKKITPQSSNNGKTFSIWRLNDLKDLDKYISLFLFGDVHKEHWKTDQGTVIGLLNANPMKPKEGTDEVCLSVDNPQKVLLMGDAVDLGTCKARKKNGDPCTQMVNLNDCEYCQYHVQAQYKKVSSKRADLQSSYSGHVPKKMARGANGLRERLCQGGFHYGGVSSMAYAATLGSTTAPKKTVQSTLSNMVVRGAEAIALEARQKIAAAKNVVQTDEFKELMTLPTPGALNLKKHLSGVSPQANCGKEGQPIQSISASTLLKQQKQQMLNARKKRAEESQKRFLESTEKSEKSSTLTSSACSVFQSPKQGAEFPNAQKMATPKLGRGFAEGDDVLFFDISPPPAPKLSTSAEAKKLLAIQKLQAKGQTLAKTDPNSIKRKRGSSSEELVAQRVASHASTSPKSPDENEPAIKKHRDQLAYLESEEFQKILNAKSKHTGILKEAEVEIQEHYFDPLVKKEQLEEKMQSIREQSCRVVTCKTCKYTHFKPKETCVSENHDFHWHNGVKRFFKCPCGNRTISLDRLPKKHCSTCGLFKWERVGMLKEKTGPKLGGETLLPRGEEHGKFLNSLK

T3: hMcm10-ID (Homo sapiens, UniProt Q7L590)
T3 construct: hMcm10-ID (residues 237 to 436) were expressed in E. coli strain BL21(DE3); 6xHis (HRV 3C site) (N, cleaved yes); made in house; host or cells: E. coli BL21(DE3)
T3 sequence (Q7L590 237-436): T1 sequence (Q7L590 237-436)

T4: Xenopus internal domain Mcm10 (xMcm10-ID) (Xenopus laevis, UniProt Q5EAW4)
T4 construct: xMcm10-ID (amino acid residues 229 to 427); 6xHis (HRV 3C site) (N, cleaved yes); made in house; host or cells: E. coli BL21(DE3)
T4 sequence (Q5EAW4 229-427): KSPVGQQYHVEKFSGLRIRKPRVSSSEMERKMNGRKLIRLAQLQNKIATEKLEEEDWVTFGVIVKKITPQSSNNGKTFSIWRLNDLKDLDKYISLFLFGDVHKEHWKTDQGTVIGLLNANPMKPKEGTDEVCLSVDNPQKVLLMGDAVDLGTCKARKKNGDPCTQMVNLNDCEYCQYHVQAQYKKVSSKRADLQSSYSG

T5: xMcm10-FL (Xenopus laevis, UniProt Q5EAW4 1-860)
T5 sequence: T2 sequence (Q5EAW4 1-860)

T6: xMcm10-ID (Xenopus laevis, UniProt Q5EAW4 229-427)
T6 sequence: T4 sequence (Q5EAW4 229-427)

T7: hMcm10-ID (Homo sapiens, UniProt Q7L590 237-436)
T7 sequence: T1 sequence (Q7L590 237-436)


Tests used:
[1] = target: T1, human Mcm10 internal domain (hMcm10-ID); assay: Fluorescence polarization competition assay, displacement of 5′-6FAM 10-mer ssDNA probe from hMcm10-ID; format: binding; details: mean ± s.e.m., n ≥ 3; hMcm10-ID 1 μM, probe 12.5 nM
Method: (§1) A fluorescence polarization (FP) HTS assay was established to detect inhibitors of the binding of the 5′-6FAM 10-mer oligo probe to Mcm10. Test compounds dissolved in DMSO were added to 384-well plates (Corning 4514) using an Echo 550 acoustic dispenser (final DMSO 0.1%) to achieve a final single point screening concentration of 10 µM. Then 10 µl of 2× Xenopus internal domain Mcm10 (xMcm10-ID, final concentration 2 µM) in binding buffer (20 mM Tris HCl, 100 mM NaCl, 5% glycerol, and 0.01% triton, pH 7.5) was added using the Combi nL Multidrop dispenser. Finally, 10 µl of 2× 5′-6FAM DNA (final 12.5 nM) in binding buffer was added using the Multidrop. DMSO (0.1%, high signal) and probe only (low signal) controls were included on every plate. Plates were mixed for 2 min, incubated for 60 min at RT in the dark, and read on a CLARIOstar multimode plate reader (excitation: 482-16, emission: 530-40, dichroic filter: LP504).
(§2) The LOPAC pilot screen identified the sulfhydryl reagent 4-chloromercuribenzoic acid as an inhibitor in the fluorescence polarization (FP) assay. As there was no known Mcm10 inhibitor, 4-chloromercuribenzoic acid (30 μM) was used as a positive control on initial screening plates. Following the discovery of suramin as a Mcm10 inhibitor, suramin (7 μM) was used as a positive control on subsequent screening plates. To confirm activity, screening hits were tested in dose response experiments (8 concentrations in duplicate) using xMcm10-ID. Similar dose response experiments were conducted with suramin and its analogs to confirm activity for hMcm10-ID (1 μM) and xMcm10-FL (2 μM) and to determine selectivity relative to RPA70AB (0.4 μM). Saturation experiments for each protein were conducted using increasing concentrations of protein with a fixed probe concentration (12.5 nM). FP was measured in mP units, and ∆mP values for each well were calculated as the difference between the measured mP and the average of the “probe only” controls. […] The parallel and perpendicular mP values were also used to calculate total fluorescence intensity (TFI) determined by the sum of parallel mP + (2 x perpendicular mP). TFI was used to detect fluorescence interference by compounds [1]. […] IC50 values were calculated using the four parameter logistic equation in Prism 6.0 (GraphPad). Ki values were obtained using an online Ki calculator according to the equations of Nikolovska-Coleska (http://sw16.im.med.umich.edu/soft-ware/calc_ki/). KD values were calculated using the one site or two site binding equations in Prism 6.0 (GraphPad).

[2] = target: T2, full-length Xenopus Mcm10 (xMcm10-FL); assay: Fluorescence polarization competition assay, displacement of 5′-6FAM ssDNA probe from xMcm10-FL; format: binding; details: averages of n = 2; xMcm10-FL 2 μM
Method: as §1, §2

[3] = target: T8, human RPA70AB (A and B DNA binding domains of RPA70) (Homo sapiens, UniProt P27694); assay: Fluorescence polarization competition assay, displacement of 5′-6FAM ssDNA probe from RPA70AB; details: for Ki: mean ± s.e.m., n ≥ 3; for selectivity RPA/ hMcm10: ratio of hRPA70AB Ki2 to hMcm10-ID Ki (FP)
T8 construct: recombinant human RPA70AB (181-422) in a pSV281 vector; 6xHis (TEV site) (N, cleaved yes); made in house; host or cells: Escherichia coli BL21(DE3)
Method: as §1, §2

hMcm10-ID [4] = target: T3, hMcm10-ID; assay: Surface plasmon resonance binding kinetics on immobilized hMcm10-ID (Biacore S200); details: for surface plasmon resonance hMcm10-ID kd / kon / Kd: 1:1 model, 6000–8000 RU; for surface plasmon resonance hMcm10-ID kd / kon: 25°C; for kon: read-out: surface plasmon resonance hMcm10-ID ka; for Kd: calculated from association and dissociation rate constants, read-out: surface plasmon resonance hMcm10-ID kinetic KD; for SPR binding kinetics (description of sensorgrams): immobilized hMcm10-ID
Method: SPR experiments were performed using a Biacore S200 (GE Healthcare) equipped with a research-grade CM5 sensor chip. hMcm10-ID, at a concentration of 15 µg ml^−1 in 10 mM sodium acetate, pH 4.5, […], using an amine coupling kit (GE Healthcare) to either flow cell 2 or 4 following manufacturer directions. The reference flow cell (either flow cell 1 or 3) was left untreated. All compounds were dissolved in running buffer (10 mM PBS, 150 mM NaCl, 0.005% P20, pH 7.4) prior to injection over the chip surface at a flow rate of 30 µl min^−1 and at a temperature of 25°C. Zero concentration samples were injected for double referencing. Data were collected at a rate of 40 Hz and were fitted to a simple 1 : 1 interaction model (unless otherwise noted) using the global data analysis within the Biacore S200 evaluation software.

[5] = tested on: DNA replication of sperm chromatin in Xenopus egg extracts; assay: In vitro DNA replication assay in Xenopus S-phase egg extracts ([α-32P]dGTP incorporation); format: biochemical; details: 10, 50, 150 and 300 µM
Method: Xenopus egg extracts were prepared according to the method of Murray. Replication of sperm chromatin in S-phase egg extracts was monitored as previously described. Compounds identified by HTS were added to replication reactions immediately prior to addition of [α-^32P]dGTP (Perkin Elmer BLU514H250UC).
To determine whether the four remaining confirmed HTS hits affected DNA replication, in vitro replication assays were performed using Xenopus S-phase egg extracts incubated with sperm chromatin [25, 34]. DNA replication was measured in the presence of bronopol, fumarprotocetraric acid, iriginol and suramin or DMSO by the incorporation of [α-^32P]dGTP. […] For this reason, further studies focused on suramin alone.
Figure 1. Suramin inhibits DNA replication in an in vitro Xenopus replication assay. HTS hits were evaluated for inhibition of [α-^32P]dGTP incorporation into DNA using a cell-free extract prepared from Xenopus eggs at increasing concentrations (10, 50, 150 and 300 µM indicated by black triangle from right to left). No chemical (–) and DMSO were used as negative controls for replication inhibition (far left and far right lanes).

[6] = target: T4, Xenopus internal domain Mcm10 (xMcm10-ID); assay: Fluorescence polarization HTS and dose-response assay, 5′-6FAM probe binding to xMcm10-ID; details: dose-response with repurchased or purchased compound
Method: as §1, §2

RPA70AB = RPA70AB (Homo sapiens, UniProt P27694 181-422); assay: fluorescence polarization; FP: 20 mM Tris-HCl, 100 mM NaCl, 5% glycerol, 0.01% Triton, pH 7.5, RT 60 min, 12.5 nM probe (0.1% DMSO in HTS); details: protein: recombinant; label: 5'-6-FAM; single strand
xMcm10-FL = target: T5, xMcm10-FL; assay: as above; details: protein: recombinant; label: 5'-6-FAM; single strand
xMcm10-ID = target: T6, xMcm10-ID; assay: as above; details: protein: recombinant; label: 5'-6-FAM; single strand
hMcm10-ID [7] = target: T7, hMcm10-ID; assay: as above; details: protein: recombinant; label: 5'-6-FAM; single strand
[8] = predominant low-affinity (or only) component, read-out: fluorescence polarization hRPA70AB Ki2

T8 sequence (P27694 181-422): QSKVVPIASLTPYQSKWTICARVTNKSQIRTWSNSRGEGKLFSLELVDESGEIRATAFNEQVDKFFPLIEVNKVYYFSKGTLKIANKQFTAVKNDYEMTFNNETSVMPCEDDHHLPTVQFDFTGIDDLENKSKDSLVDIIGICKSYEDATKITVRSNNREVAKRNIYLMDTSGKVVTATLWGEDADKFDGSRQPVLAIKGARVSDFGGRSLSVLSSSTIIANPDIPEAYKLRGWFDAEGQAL
Chain of RPA70AB (P27694 181-422): as above

Row | Molecule | Ki [1] | Ki [2] | Ki [3, 8] | selectivity RPA/ hMcm10 [3] | surface plasmon resonance hMcm10-ID kd (hMcm10-ID [4]) | kon (hMcm10-ID [4]) | Kd (hMcm10-ID [4]) | SPR binding kinetics (description of sensorgrams) (hMcm10-ID [4]) | DNA replication, [α-32P]dGTP incorporation (result in words) [5] | inhibition of 5′-6FAM probe binding to xMcm10-ID (result in words) [6] | also measured
1 | O=C(Nc1cc(C(=O)Nc2ccc(S(=O)(=O)O)cc2)cc(C(=O)Nc2ccc(S(=O)(=O)O)cc2)c1)Nc1cc(C(=O)Nc2ccc(S(=O)(=O)O)cc2)cc(C(=O)Nc2ccc(S(=O)(=O)O)cc2)c1 [NF110] | 2300 ± 100 nM | 2900 nM | 23000 ± 1000 nM | 10 | 0.35 ± 0.19 s^−1 | 290000 ± 1.6e+10 M⁻¹ s⁻¹ | 1500 ± 200 nM | predominantly rapid kinetics |  |  | Ki ([3]; high-affinity component of biphasic displacement curve, read-out: fluorescence polarization hRPA70AB Ki1): 210 ± 40 nM
2 | O=C(Nc1cc(C(=O)Nc2ccc(S(=O)(=O)O)cc2S(=O)(=O)O)cc(C(=O)Nc2ccc(S(=O)(=O)O)cc2S(=O)(=O)O)c1)Nc1cc(C(=O)Nc2ccc(S(=O)(=O)O)cc2S(=O)(=O)O)cc(C(=O)Nc2ccc(S(=O)(=O)O)cc2S(=O)(=O)O)c1 [NF449] | 440 ± 40 nM | 1900 nM | 14000 ± 400 nM | 32 | 0.59 ± 0.10 s^−1 | 780000 ± 1e+09 M⁻¹ s⁻¹ | 740 ± 130 nM | predominantly rapid kinetics |  |  | selectivity for hMcm10 over RPA70AB ([3]; FP): more than 10 fold; IC50 ([3]; below lower limit of the sensitivity of the assay, read-out: IC50 value for the high affinity component, hRPA70AB): 93 nM
3 | O=[N+]([O-])C(Br)(CO)CO [bronopol] |  |  |  |  |  |  |  |  | only suramin exhibited a dose-dependent decrease in DNA replication | active | 
4 | CC(=O)Oc1cc(-c2coc3cc(OC(C)=O)c(OC(C)=O)c(OC(C)=O)c3c2=O)cc(OC(C)=O)c1OC(C)=O [iriginol hexaacetate] |  |  |  |  |  |  |  |  | only suramin exhibited a dose-dependent decrease in DNA replication | active | 
5 | Cc1cc(O)c(C=O)c2c1C(=O)Oc1c(COC(=O)/C=C/C(=O)O)c(O)c(C(=O)O)c(C)c1O2 [fumarprotocetraric acid] |  |  |  |  |  |  |  |  | only suramin exhibited a dose-dependent decrease in DNA replication | active | 
6 | ATGGTAGGCA (ssDNA) [5'-6FAM 10-mer] |  |  |  |  |  |  |  |  |  |  | Kd (RPA70AB): 370 nM; Kd (xMcm10-FL): 1100 nM; Kd (xMcm10-ID): 1300 nM; Kd (hMcm10-ID [7]): 2290 nM
